In BindingDB's records for doi:10.3109/14756366.2011.572879 (Ataturk University, 2012) one finds IC50 and Ki data, which are given here for 3 molecules.

The IC50 is the concentration at which inhibition is half-maximal. For orientation: Ki means the dissociation constant of the complex between target and ligand, obtained from inhibition or displacement. Higher therefore signals lower affinity.

Structures can show the parent of a compound that is named as a salt.

The target of the experiment is T1, Glutathione reductase, mitochondrial (Homo sapiens, UniProt P00390).
T1 sequence (P00390 whole entry): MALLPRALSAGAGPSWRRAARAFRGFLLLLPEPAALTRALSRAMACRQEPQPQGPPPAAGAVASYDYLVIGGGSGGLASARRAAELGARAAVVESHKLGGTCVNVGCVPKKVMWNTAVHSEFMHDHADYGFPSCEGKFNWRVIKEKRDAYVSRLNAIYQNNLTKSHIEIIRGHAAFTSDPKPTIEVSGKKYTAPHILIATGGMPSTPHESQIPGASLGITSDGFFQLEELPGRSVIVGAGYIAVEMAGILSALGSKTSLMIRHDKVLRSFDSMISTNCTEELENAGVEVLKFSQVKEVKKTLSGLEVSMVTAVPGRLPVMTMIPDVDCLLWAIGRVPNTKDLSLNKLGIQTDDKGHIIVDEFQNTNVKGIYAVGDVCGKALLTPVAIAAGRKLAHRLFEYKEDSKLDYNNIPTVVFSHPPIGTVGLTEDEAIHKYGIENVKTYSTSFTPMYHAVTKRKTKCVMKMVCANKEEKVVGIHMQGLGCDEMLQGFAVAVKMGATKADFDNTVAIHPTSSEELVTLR
The experiment is described as follows: Activity Assay. The settings on record: pH 8; 25 °C. The method, then:
The assay system contained 40 mM Tris-HCl buffer, pH 8.0, including 0.8 mM EDTA, 1 mM GSSG and 0.1 mM NADPH in 1 mL total reaction volume. The activity was measured by monitoring the decrease in absorbance at 340 nm due to the oxidationof NADPH at 25°C. One enzyme unit is defined as the oxidation of […] NADPH per min under the assay conditions.

For the molecule `CN1CCC(=C2c3ccccc3CC(=O)c3sccc32)CC1` [(Z)-2-butenedioate;10-(1-methyl-4-piperidinylidene)-5H-benzo[1,2]cyclohepta[3,4-b]thiophen-4-one], the IC50 is 12 µM and affinity was put at a Ki of 0.8 µM.
`O=C(O)CN(CCN(CC(=O)O)CC(=O)O)CCN(CC(=O)O)CC(=O)O` [Gadopentetic acid] gave an inhibition constant (Ki) of 28800 µM.
As for `OC(CNc1ccccn1)c1ccccc1` (stereo not given) [Phenyramidol-HCl], the IC50 was determined as 990 µM and the Ki is 434 µM.
